# Data as given in patent US11026943B2, “Aminoquinoline derivatives and uses thereof” (UNIVERSITY OF DELHI, priority 2012, dated 2021).
# Assays:
# [1] = system: CQ-sensitive (D6 clone) strain of P. falciparum; experiment: In vitro antimalarial activity, CQ-sensitive strain; assay type: cell-based, Plasmodium falciparum; conditions: for IC50: Plasmodium falciparum, CQ-sensitive D6 clone, read-out: P. falciparum (D6 Clone) IC50; for selectivity index of antimalarial activity: ratio of IC50 for cytotoxicity to Vero cells and IC50 for antimalarial activity; for P. falciparum (D6 Clone) S.I.: selectivity index = IC50 cytotoxicity to Vero cells / IC50 antimalarial; for activity fold higher than artemisinin: CQ-sensitive strain
# From the text: (§1) Med. Chem. 2005, 13, 4458; Khan, I. A. Lipids 2004, 37, 169].
# [2] = system: CQ-resistant (W2 clone) strain of P. falciparum; experiment: In vitro antimalarial activity, CQ-resistant strain; assay type: cell-based, Plasmodium falciparum; conditions: for IC50: Plasmodium falciparum, CQ-resistant W2 clone, read-out: P. falciparum (W2 Clone) IC50; for P. falciparum (W2 Clone) S.I.: selectivity index = IC50 cytotoxicity to Vero cells / IC50 antimalarial
# From the text: as §1
# VERO cells = experiment: In vitro cytotoxicity to mammalian cells, VERO; assay type: cell-based; conditions: for IC50: Chlorocebus sabaeus, Vero, in vitro cytotoxicity to mammalian cells; for toxicity to cell lines: all the three cell lines (VERO, LLC-PK-1, and HepG2)
# From the text: as §1
# LLC-PK-1 cells = experiment: In vitro cytotoxicity to mammalian cells, LLC-PK-1; assay type: cell-based; conditions: Sus scrofa, LLC-PK1
# From the text: as §1
# HepG2 cells = experiment: In vitro cytotoxicity to mammalian cells, HepG2; assay type: cell-based; conditions: Homo sapiens
# From the text: as §1
# parasitemia = experiment: In-vivo antimalarial activity in mice; conditions: mice; for parasitemia suppression / % Parasitemia suppression Day 5: day 5; for parasitemia suppression / survival rate / apparent toxicity: 30 mg/kg for 3 days post infection; for survival rate / Survival (animals that survived day 28/total animals in group): day 28; for Cure (number of mice without parasitemia till day 28 post-infection) / MST (mean survival time) / Remarks (toxicity) / % Parasitemia suppression Day 5 / % Parasitemia suppression Day 7 / Survival (animals that survived day 28/total animals in group) / Day of Death: PO; for Day of Death: per animal
# [3] = 3.3 mg/kg × 3 days post-infection
# [4] = 10 mg/kg × 3 days post-infection
# [5] = 30 mg/kg × 3 days post-infection
structure (smiles),measurement,setting,value
"Cc1cc(NCCCCCCNc2ccnc3cc(Cl)ccc23)nc(N2CCCCC2)n1 [12d, N-(7-Chloro-quinolin-4-yl)-N′-(6-methyl-2-piperidin-1-yl-pyrimidin-4-yl)-hexane-1,6-diamine]",IC50,[1],0.066 µM
same,selectivity index of antimalarial activity,[1],considerably high
same,P. falciparum (D6 Clone) S.I.,[1],142.4
same,IC50,[2],0.128 µM
same,P. falciparum (W2 Clone) S.I.,[2],73.4
same,IC50,VERO cells,9.4 µM
same,toxicity to cell lines,VERO cells,showed toxicity
same,IC50,LLC-PK-1 cells,< 6.7 µM
same,IC50,HepG2 cells,< 6.7 µM
same,melting point,,97 to 99 °C
"Cc1cc(NCCNc2ccnc3cc(Cl)ccc23)nc(N2CCOCC2)n1 [12e, N-(7-Chloro-quinolin-4-yl)-N′-(6-methyl-2-morpholin-4-yl-pyrimidin-4-yl)-ethane-1,2-diamine]",IC50,[1],0.025 µM
same,P. falciparum (D6 Clone) S.I.,[1],(>2400)
same,IC50,[2],0.12 µM
same,P. falciparum (W2 Clone) S.I.,[2],(>500)
same,IC50,VERO cells,> 60 µM
same,IC50,LLC-PK-1 cells,> 60 µM
same,IC50,HepG2 cells,> 60 µM
same,melting point,,165 to 167 °C
"Cc1cc(NCCCCNc2ccnc3cc(Cl)ccc23)nc(N2CCOCC2)n1 [12g, N-(7-Chloro-quinolin-4-yl)-N′-(6-methyl-2-morpholin-4-yl-pyrimidin-4-yl)-butane-1,4-diamine]",melting point,,214 to 216 °C
"Cc1cc(NCCCCCCNc2ccnc3cc(Cl)ccc23)nc(N2CCOCC2)n1 [12h, N-(7-Chloro-quinolin-4-yl)-N′-(6-methyl-2-morpholin-4-yl-pyrimidin-4-yl)-hexane-1,6-diamine]",IC50,[1],0.041 µM
same,selectivity index of antimalarial activity,[1],considerably high
same,P. falciparum (D6 Clone) S.I.,[1],417.0
same,IC50,[2],0.12 µM
same,P. falciparum (W2 Clone) S.I.,[2],142.5
same,IC50,VERO cells,17.1 µM
same,toxicity to cell lines,VERO cells,showed toxicity
same,IC50,LLC-PK-1 cells,9.8 µM
same,IC50,HepG2 cells,< 6.7 µM
same,melting point,,107 to 109 °C
"Cc1cc(NCCNc2ccnc3cc(Cl)ccc23)nc(N2CCN(C)CC2)n1 [12i, N-(7-Chloro-quinolin-4-yl)-N′-[6-methyl-2-(4-methyl-piperazin-1-yl)-pyrimidin-4-yl]-ethane-1,2-diamine]",activity fold higher than artemisinin,[1],2 fold
same,IC50,[1],0.006 µM
same,P. falciparum (D6 Clone) S.I.,[1],(>10000)
same,IC50,[2],0.046 µM
same,P. falciparum (W2 Clone) S.I.,[2],(>1304)
same,IC50,VERO cells,> 60 µM
same,IC50,LLC-PK-1 cells,> 60 µM
same,IC50,HepG2 cells,> 60 µM
same,parasitemia suppression,parasitemia,100%
same,survival rate,parasitemia,5/5
same,apparent toxicity,parasitemia,No apparent toxicity
same,Cure (number of mice without parasitemia till day 28 post-infection),parasitemia; [3],0/5
same,MST (mean survival time),parasitemia; [3],19.2 days
same,Remarks (toxicity),parasitemia; [3],No apparent
same,% Parasitemia suppression Day 5,parasitemia; [3],23.52%
same,% Parasitemia suppression Day 7,parasitemia; [3],35.21%
same,Survival (animals that survived day 28/total animals in group),parasitemia; [3],1/5
same,Day of Death,parasitemia; [3],21/28/21/13/13
same,Cure (number of mice without parasitemia till day 28 post-infection),parasitemia; [4],0/5
same,MST (mean survival time),parasitemia; [4],21.4 days
same,Remarks (toxicity),parasitemia; [4],No apparent
same,% Parasitemia suppression Day 5,parasitemia; [4],97.03%
same,% Parasitemia suppression Day 7,parasitemia; [4],2.03%
same,Survival (animals that survived day 28/total animals in group),parasitemia; [4],0/5
same,Day of Death,parasitemia; [4],21/22/22/21/21
same,Cure (number of mice without parasitemia till day 28 post-infection),parasitemia; [5],4/5
same,MST (mean survival time),parasitemia; [5],28 days
same,Remarks (toxicity),parasitemia; [5],No apparent
same,% Parasitemia suppression Day 5,parasitemia; [5],100.00%
same,% Parasitemia suppression Day 7,parasitemia; [5],100.00%
same,Survival (animals that survived day 28/total animals in group),parasitemia; [5],5/5
same,Day of Death,parasitemia; [5],28/28/28/28/28
"Cc1cc(NCCCCCCNc2ccnc3cc(Cl)ccc23)nc(N2CCN(C)CC2)n1 [12l, N-(7-Chloro-quinolin-4-yl)-N′-[6-methyl-2-(4-methyl-piperazin-1-yl)-pyrimidin-4-yl]-hexane-1,6-diamine]",activity fold higher than artemisinin,[1],2 fold
same,IC50,[1],0.007 µM
same,selectivity index of antimalarial activity,[1],considerably high
same,P. falciparum (D6 Clone) S.I.,[1],(>1457)
same,IC50,[2],0.016 µM
same,P. falciparum (W2 Clone) S.I.,[2],(>637)
same,IC50,VERO cells,10.2 µM
same,toxicity to cell lines,VERO cells,showed toxicity
same,IC50,LLC-PK-1 cells,7.4 µM
same,IC50,HepG2 cells,< 6.7 µM
same,melting point,,152 to 154 °C
"Cc1cc(NCCNc2ccnc3cc(Cl)ccc23)nc(N2CCCCC2)n1 [12a, N-(7-chloro-quinolin-4-yl)-N′-(6-methyl-2-piperidin-1-yl-pyrimidin-4-yl)-ethane-1,2-diamine]",melting point,,177 to 179 °C
"Cc1cc(NCCCNc2ccnc3cc(Cl)ccc23)nc(N2CCN(C)CC2)n1 [12j, N-(7-Chloro-quinolin-4-yl)-N′-[6-methyl-2-(4-methyl-piperazin-1-yl)-pyrimidin-4-yl]-propane-1,3-diamine]",activity fold higher than artemisinin,[1],2 fold
same,IC50,[1],0.007 µM
same,P. falciparum (D6 Clone) S.I.,[1],(>8571)
same,IC50,[2],0.063 µM
same,P. falciparum (W2 Clone) S.I.,[2],(>952)
same,IC50,VERO cells,> 60 µM
same,IC50,LLC-PK-1 cells,35.2 µM
same,IC50,HepG2 cells,25.8 µM
same,melting point,,176 to 178 °C
"Cc1cc(NCCCNc2ccnc3cc(Cl)ccc23)nc(N2CCOCC2)n1 [12f, N-(7-Chloro-quinolin-4-yl)-N′-(6-methyl-2-morpholin-4-yl-pyrimidin-4-yl)-propane-1,3-diamine]",IC50,[1],0.022 µM
same,P. falciparum (D6 Clone) S.I.,[1],(>2727)
same,IC50,[2],0.058 µM
same,P. falciparum (W2 Clone) S.I.,[2],(>1034)
same,IC50,VERO cells,> 60 µM
same,IC50,LLC-PK-1 cells,35.1 µM
same,IC50,HepG2 cells,26.1 µM
same,melting point,,165 to 167 °C
"CCN1CCN(c2nc(C)cc(NCCCCNc3ccnc4cc(Cl)ccc34)n2)CC1 [12n, N-(7-Chloro-quinolin-4-yl)-N′-[2-(4-ethyl-piperazin-1-yl)-6-methyl-pyrimidin-4-yl]-butane-1,4-diamine]",IC50,[1],0.019 µM
same,P. falciparum (D6 Clone) S.I.,[1],1678.9
same,IC50,[2],0.018 µM
same,P. falciparum (W2 Clone) S.I.,[2],1772.2
same,IC50,VERO cells,31.9 µM
same,IC50,LLC-PK-1 cells,10.5 µM
same,IC50,HepG2 cells,14.9 µM
same,melting point,,101 to 103 °C
"Cc1cc(NCCCCNc2ccnc3cc(Cl)ccc23)nc(N2CCN(C)CC2)n1 [12k, N-(7-Chloro-quinolin-4-yl)-N′-[6-methyl-2-(4-methyl-piperazin-1-yl)-pyrimidin-4-yl]-butane-1,4-diamine]",IC50,[1],0.022 µM
same,P. falciparum (D6 Clone) S.I.,[1],(>2727)
same,IC50,[2],0.021 µM
same,P. falciparum (W2 Clone) S.I.,[2],(>2857)
same,IC50,VERO cells,> 60 µM
same,IC50,LLC-PK-1 cells,34 µM
same,IC50,HepG2 cells,27.2 µM
same,melting point,,183 to 185 °C
"CCN1CCN(c2nc(C)cc(NCCCNc3ccnc4cc(Cl)ccc34)n2)CC1 [12m, N-(7-Chloro-quinolin-4-yl)-N′-[2-(4-ethyl-piperazin-1-yl)-6-methyl-pyrimidin-4-yl]-propane-1,3-diamine]",activity fold higher than artemisinin,[1],2 fold
same,IC50,[1],0.006 µM
same,P. falciparum (D6 Clone) S.I.,[1],(>10000)
same,IC50,[2],0.061 µM
same,P. falciparum (W2 Clone) S.I.,[2],(>983)
same,IC50,VERO cells,> 60 µM
same,IC50,LLC-PK-1 cells,> 60 µM
same,IC50,HepG2 cells,> 60 µM
same,parasitemia suppression,parasitemia,100%
same,survival rate,parasitemia,4/5
same,apparent toxicity,parasitemia,No apparent toxicity
same,Cure (number of mice without parasitemia till day 28 post-infection),parasitemia; [3],0/5
same,MST (mean survival time),parasitemia; [3],20.2 days
same,Remarks (toxicity),parasitemia; [3],No apparent
same,% Parasitemia suppression Day 5,parasitemia; [3],20.12%
same,% Parasitemia suppression Day 7,parasitemia; [3],19.09%
same,Survival (animals that survived day 28/total animals in group),parasitemia; [3],0/5
same,Day of Death,parasitemia; [3],17/21/21/21/21
same,Cure (number of mice without parasitemia till day 28 post-infection),parasitemia; [4],0/5
same,MST (mean survival time),parasitemia; [4],15.2 days
same,Remarks (toxicity),parasitemia; [4],No apparent
same,% Parasitemia suppression Day 5,parasitemia; [4],73.89%
same,% Parasitemia suppression Day 7,parasitemia; [4],27.14%
same,Survival (animals that survived day 28/total animals in group),parasitemia; [4],0/5
same,Day of Death,parasitemia; [4],7/21/20/7/21
same,Cure (number of mice without parasitemia till day 28 post-infection),parasitemia; [5],1/5
same,MST (mean survival time),parasitemia; [5],27.2 days
same,Remarks (toxicity),parasitemia; [5],No apparent
same,% Parasitemia suppression Day 5,parasitemia; [5],100.00%
same,% Parasitemia suppression Day 7,parasitemia; [5],100.00%
same,Survival (animals that survived day 28/total animals in group),parasitemia; [5],4/5
same,Day of Death,parasitemia; [5],28/28/28/28/24
"Cc1cc(NCCCCNc2ccnc3cc(Cl)ccc23)nc(N2CCCCC2)n1 [12c, N-(7-Chloro-quinolin-4-yl)-N′-(6-methyl-2-piperidin-1-yl-pyrimidin-4-yl)-butane-1,4-diamine]",IC50,[1],0.021 µM
same,P. falciparum (D6 Clone) S.I.,[1],(>2857)
same,IC50,[2],0.082 µM
same,P. falciparum (W2 Clone) S.I.,[2],(>730)
same,IC50,VERO cells,> 60 µM
same,IC50,LLC-PK-1 cells,> 60 µM
same,IC50,HepG2 cells,> 60 µM
same,melting point,,187 to 189 °C
